From ChEMBL document CHEMBL1143283, “Preliminary biological evaluations of new thalidomide analogues for multiple sclerosis application” (Bioorg Med Chem Lett, 2009) come the findings set out here.

The nature of assay [1]: Antiproliferative activity against human EAhy926 cells. The format is functional, cell-based. To be noted: EA.hy 926.
In assay [2] the test system is Mus musculus. The assay can be described thus: Antiangiogenesis activity against MOG peptide, pertussis toxin, Mycobacterium tuberculosis-induced experimental allergic encephalomyelitis C57BL/6J mouse model assessed as inhibition of multiple sclerosis at 100 mg/kg up to 15 days. In kind it is functional, organism-based. Further details: dose 100 mg/kg.
Assay [3] concerns EA.hy 926. Nature of the assay: Antiproliferative activity against human EAhy926 cells at 10 uM. In kind it is functional, cell-based.
The subject of assay [4] is EA.hy 926. The assay can be described thus: Antiproliferative activity against human EAhy926 cells at 12 uM. The format is functional, cell-based.
The test system of assay [5] is Mus musculus. Nature of the assay: Antiangiogenesis activity against MOG peptide, pertussis toxin, Mycobacterium tuberculosis-induced experimental allergic encephalomyelitis C57BL/6J mouse model assessed as inhibition of multiple sclerosis at dose equivalent to 100 mg/kg of thalidomide up to 15 days. Further details: dose 100 mg/kg. In kind it is functional, organism-based.

Active and inactive are the calls of the source. The rule behind the calls is not given here.

As a reminder, the IC50 is the point on the concentration scale where inhibition reaches its midpoint. Low values mean inhibition by little substance, high ones a need for much substance. Molecule `O=C1CCC(N2C(=O)c3ccccc3C2=O)C(=O)N1` (stereo not drawn) [THALIDOMIDE] showed an IC50 in assay [1] of 200 µM. Also, in assay [2], the outcome was inactive. Take `O=C1CCC(N2C(=O)c3ccc([N+](=O)[O-])cc3C2=O)C(=O)N1` (stereo not drawn): the result in assay [3] and in assay [4] was inactive. With `O=C1CCC(N2C(=O)c3ccc(NCCCNC(=O)C(O)C(O)C(O[C@@H]4O[C@H](CO)[C@H](O)[C@H](O)[C@H]4O)C(O)CO)cc3C2=O)C(=O)N1` (stereo partly drawn), the result in assay [5] was Active.

For the molecule `O=C1CCC(N2C(=O)c3ccc(NCCCCC(NC(=O)[C@H](O)[C@H](O)[C@H](O[C@@H]4O[C@H](CO)[C@H](O)[C@H](O)[C@H]4O)[C@H](O)CO)C(=O)NCCC(F)(F)C(F)(F)C(F)(F)C(F)(F)C(F)(F)C(F)(F)C(F)(F)C(F)(F)F)cc3C2=O)C(=O)N1` (stereo partly drawn), in assay [5], the outcome was inactive. Same read-out and setting: the value for `O=C1CCC(N2C(=O)c3ccc(C(=O)O)cc3C2=O)C(=O)N1` (stereo not drawn) was “Active”; that for `Nc1ccc2c(c1)C(=O)N(C1CCC(=O)NC1=O)C2=O` (stereo not drawn) was “inactive”. In assay [1], `CC(C)(C)OC(=O)NCCNc1ccc2c(c1)C(=O)N(C1CCC(=O)NC1=O)C2=O` (stereo not drawn) had an IC50 of 41 µM. In turn, `NCCNc1cccc2c1C(=O)N(C1CCC(=O)NC1=O)C2=O` (stereo not drawn) yielded an IC50 in assay [1] of 150 µM. On to `NCCNc1ccc2c(c1)C(=O)N(C1CCC(=O)NC1=O)C2=O` (stereo not drawn), for which the result in assay [3], in assay [4] and in assay [5] was inactive.
